Target: T1, Serine/threonine-protein kinase D1 (Homo sapiens, UniProt Q15139)
T1 sequence (Q15139 whole entry): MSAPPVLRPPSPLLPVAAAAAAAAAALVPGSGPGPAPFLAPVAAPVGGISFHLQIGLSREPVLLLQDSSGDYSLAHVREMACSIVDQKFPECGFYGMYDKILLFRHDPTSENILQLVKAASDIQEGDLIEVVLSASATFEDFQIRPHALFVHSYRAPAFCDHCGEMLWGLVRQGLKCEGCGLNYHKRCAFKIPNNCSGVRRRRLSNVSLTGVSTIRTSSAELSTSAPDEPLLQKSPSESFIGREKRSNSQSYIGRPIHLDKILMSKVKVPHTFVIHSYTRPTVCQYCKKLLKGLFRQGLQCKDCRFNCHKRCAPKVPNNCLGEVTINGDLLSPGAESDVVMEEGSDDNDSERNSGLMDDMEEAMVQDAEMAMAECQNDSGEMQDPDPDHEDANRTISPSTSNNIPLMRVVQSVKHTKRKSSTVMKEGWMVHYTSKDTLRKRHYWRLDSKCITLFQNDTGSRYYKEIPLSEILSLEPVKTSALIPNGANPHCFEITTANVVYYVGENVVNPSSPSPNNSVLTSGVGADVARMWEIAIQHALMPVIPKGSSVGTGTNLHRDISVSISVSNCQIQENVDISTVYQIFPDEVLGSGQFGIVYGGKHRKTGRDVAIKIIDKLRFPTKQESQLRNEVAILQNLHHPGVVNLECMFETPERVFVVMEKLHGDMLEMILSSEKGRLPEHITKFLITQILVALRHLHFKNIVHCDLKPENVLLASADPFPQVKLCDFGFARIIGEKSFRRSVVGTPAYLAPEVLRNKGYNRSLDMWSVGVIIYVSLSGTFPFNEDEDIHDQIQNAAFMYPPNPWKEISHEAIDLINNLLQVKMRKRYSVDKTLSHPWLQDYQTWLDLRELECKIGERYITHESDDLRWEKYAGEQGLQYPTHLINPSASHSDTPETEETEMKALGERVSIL
Experiment: Inhibition of PKCmu

Row | Structure (SMILES) | IC50 [nM]
1 | Cc1cccc(-c2[nH]c(CNc3cccc(C#N)c3)nc2-c2ccc3nccnc3c2)n1 | 1000

Target: Mitogen-activated protein kinase 14 (Homo sapiens, UniProt Q16539)
Sequence (Q16539 whole entry): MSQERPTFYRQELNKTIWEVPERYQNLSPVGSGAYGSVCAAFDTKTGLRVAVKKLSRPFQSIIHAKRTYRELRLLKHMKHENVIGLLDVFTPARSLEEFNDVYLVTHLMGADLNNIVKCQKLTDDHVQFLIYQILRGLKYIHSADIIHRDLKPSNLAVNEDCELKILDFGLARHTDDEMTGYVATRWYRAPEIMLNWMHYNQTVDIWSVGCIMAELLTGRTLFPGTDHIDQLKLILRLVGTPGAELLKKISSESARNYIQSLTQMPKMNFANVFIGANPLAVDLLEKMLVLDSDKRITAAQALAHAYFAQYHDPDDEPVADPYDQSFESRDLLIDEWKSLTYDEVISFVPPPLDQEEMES

Row | Structure (SMILES) | IC50 [nM]
2 | Cc1cccc(-c2[nH]c(CNc3cccc(C#N)c3)nc2-c2ccc3nccnc3c2)n1 | 1030

Target: T2, TGF-beta receptor type-1 (Homo sapiens, UniProt P36897)
T2 sequence (P36897 whole entry): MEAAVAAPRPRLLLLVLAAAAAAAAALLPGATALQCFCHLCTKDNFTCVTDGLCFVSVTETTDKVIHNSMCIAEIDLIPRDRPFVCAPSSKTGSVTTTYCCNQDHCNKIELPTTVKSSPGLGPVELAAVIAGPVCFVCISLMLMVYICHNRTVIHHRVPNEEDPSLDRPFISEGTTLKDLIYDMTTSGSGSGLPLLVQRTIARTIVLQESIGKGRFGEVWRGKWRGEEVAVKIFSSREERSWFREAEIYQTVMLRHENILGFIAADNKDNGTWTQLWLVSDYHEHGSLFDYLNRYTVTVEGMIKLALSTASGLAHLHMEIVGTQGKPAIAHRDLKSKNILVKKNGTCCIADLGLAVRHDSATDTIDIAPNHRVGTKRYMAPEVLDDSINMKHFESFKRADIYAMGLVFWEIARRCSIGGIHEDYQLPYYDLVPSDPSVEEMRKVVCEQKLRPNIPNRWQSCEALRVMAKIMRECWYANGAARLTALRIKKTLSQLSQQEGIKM
Experiment: Inhibition of human recombinant ALK5 phosphorylation expressed in Sf9 cells

Row | Structure (SMILES) | IC50 [nM]
3 | CCc1cccc(-c2nc(CNc3ccc(C(N)=O)cc3)[nH]c2-c2ccc3nccnc3c2)n1 | 92
4 | Cc1cccc(-c2[nH]c(NCc3cccc(C#N)c3)nc2-c2ccc3c(c2)OCO3)n1 | 24
5 | Cc1cccc(-c2[nH]c(CNc3ccc(C#N)cc3)nc2-c2ccc3c(c2)OCO3)n1 | 174
6 | CCc1cccc(-c2nc(CNc3cccc(C#N)c3)[nH]c2-c2ccc3c(c2)OCO3)n1 | 73
7 | CCc1cccc(-c2[nH]c(CNc3ccc(C#N)cc3)nc2-c2ccc3c(c2)OCO3)n1 | 360
8 | Cc1cccc(-c2[nH]c(CNc3ccc(C#N)cc3)nc2-c2ccc3nccnc3c2)n1 | 42
9 | CCc1cccc(-c2[nH]c(CNc3cccc(C#N)c3)nc2-c2ccc3nccnc3c2)n1 | 119
10 | CCc1cccc(-c2[nH]c(CNc3ccc(C#N)cc3)nc2-c2ccc3nccnc3c2)n1 | 47
11 | Cc1cccc(-c2[nH]c(CNc3ccc(C(N)=O)cc3)nc2-c2ccc3c(c2)OCO3)n1 | 262
12 | CCc1cccc(-c2nc(CNc3cccc(C(N)=O)c3)[nH]c2-c2ccc3c(c2)OCO3)n1 | 46
13 | Cc1cccc(-c2nc(CNc3cccc(C(N)=O)c3)[nH]c2-c2ccc3nccnc3c2)n1 | 10
14 | Cc1cccc(-c2nc(CNc3ccc(C(N)=O)cc3)[nH]c2-c2ccc3nccnc3c2)n1 | 75
15 | CCc1cccc(-c2[nH]c(CNc3cccc(C(N)=O)c3)nc2-c2ccc3nccnc3c2)n1 | 15
16 | Cc1cccc(-c2[nH]c(CNc3cccc(C#N)c3)nc2-c2ccc3c(c2)OCO3)n1 | 46
17 | Cc1cccc(-c2[nH]c(CNc3cccc(C#N)c3)nc2-c2ccc3nccnc3c2)n1 | 12
18 | Cc1cccc(-c2[nH]c(CNc3cccc(C(N)=O)c3)nc2-c2ccc3c(c2)OCO3)n1 | 21
19 | CCc1cccc(-c2[nH]c(CNc3ccc(C(N)=O)cc3)nc2-c2ccc3c(c2)OCO3)n1 | 385
20 | Cc1cccc(-c2[nH]c(NCc3ccc(C#N)cc3)nc2-c2ccc3c(c2)OCO3)n1 | 153
